# Results from patent US10987430B2, “Di-substituted maleic amide linker for antibody drug conjugating and preparation method and use thereof” (Mabwell (shanghai) Bioscience Co., Ltd., priority 2016, dated 2021).
# pIC50: −log10 of the molar value.
# Experiments:
# [1] = system: 18 human tumor cell lines; details: cited from earlier work
# [2] = system: BT-474 human breast cancer cells; test: SRB cell proliferation assay in vitro; format: cell-based
# Source text: (§1) Sulforhodamine B (SRB)-based colorimetric method was used in this Example to evaluate the anti-proliferative effect of the drugs. SRB is a pink anionic dye which is easily soluble in water and can specifically bind to basic amino acids making up proteins in cells under an acidic condition. It provides an absorption peak at 510 nm, and the absorbance is linearly and positively correlated with the amount of cells. In this regard, the method can be used in a quantitative detection of cell number.
# (§2) BT-474, SK-BR-3 and NCI-N87 cells in RPMI 1640 medium containing 10% fetal bovine serum, SKOV-3, Du-145, Panc-1, MCF-7 and MDA-MB-231 cells in DMEM containing 10% fetal bovine serum, and MDA-MB-468 cells in DMEM/F12 containing 10% fetal bovine serum were incubated to logarithmic growth phase in a 5% CO2 incubator at 37° C. The above cells in the logarithmic growth phase were inoculated into 96-well plates at a density of 2×10^3 to 9×10^3 cells per well, 100 μL per well, cultured for 24 hours and then different concentrations of drugs were added thereto for 5 days. Specifically, each drug was prepared into nine concentrations by diluting in 3, 4 or 5-fold, each concentration was set in duplicate wells, and corresponding concentration of vehicle control wells and medium control wells without cells were set too. At the end of drug action, culture solutions were decanted, and 100 μl of a pre-cooled trichloroacetic acid solution (30%, w/v) at 4° C. was added to each well and the cells were fixed at 4° C. for 1 hour. Subsequently, the cells were washed with deionized water for 5 times, and dried at room temperature, and then 100 μL of 0.4% (w/v) SRB dye (Sigma, prepared with 1% glacial acetic acid) was added to each well. After being incubated and stained at room temperature for 30 minutes, the cells were washed with 1% glacial acetic acid for 4 times to remove unbound dyes, and then dried at room temperature. Afterwards, 100 μL of 10 mM Tris solution was added per well.
# as §1, with “SRB is a pink anionic dye which is easily soluble in water and can specifically bind to basic amino acids making up proteins in cells under an acidic condition.” left out
# (§3) The above cells in the logarithmic growth phase were inoculated into 96-well plates at a density of 2×10^3 to 9×10^3 cells per well, 100 μL per well, cultured for 24 hours and then different concentrations of drugs were added thereto for 5 days. […] At the end of drug action, culture solutions were decanted, and 100 μl of a pre-cooled trichloroacetic acid solution (30%, w/v) at 4° C. was added to each well and the cells were fixed at 4° C. for 1 hour.
# [3] = system: NCI-N87 human gastric cancer cells; test: SRB cell proliferation assay in vitro; format: cell-based
# Source text: as §1, §2
# as §1, with “SRB is a pink anionic dye which is easily soluble in water and can specifically bind to basic amino acids making up proteins in cells under an acidic condition.” left out
# as §3
# [4] = system: SK-BR-3 human breast cancer cells; test: SRB cell proliferation assay in vitro; format: cell-based; details: SK-BR-3, Her2 highly expressing, 5 days, FIG. 4
# Source text: as §1
# BT-474, SK-BR-3 and NCI-N87 cells in RPMI 1640 medium containing 10% fetal bovine serum, SKOV-3, Du-145, Panc-1, MCF-7 and MDA-MB-231 cells in DMEM containing 10% fetal bovine serum, and MDA-MB-468 cells in DMEM/F12 containing 10% fetal bovine serum were incubated to logarithmic growth phase in a 5% CO2 incubator at 37° C. The above cells in the logarithmic growth phase were inoculated into 96-well plates at a density of 2×10^3 to 9×10^3 cells per well, 100 μL per well, cultured for 24 hours and then different concentrations of drugs were added thereto for 5 days. Specifically, each drug was prepared into nine concentrations by diluting in 3, 4 or 5-fold, each concentration was set in duplicate wells, and corresponding concentration of vehicle control wells and medium control wells without cells were set too. […]
# [5] = system: human gastric cancer NCI-N87 subcutaneous xenografts; test: In vivo anti-tumor efficacy assay (FIG. 10), IV once a week, 2 times in total; parameters: species or system BALB/cA-nude mice; details: 1 mg/kg
# Procedure: (§4) 6-7 weeks BALB/cA-nude mice (♀) were purchased from Shanghai Lingchang Biotechnology Co., Ltd. Production license number: SCXK (Shanghai) 2013-0018; animal certificate number: 2013001815683; and feeding environment: SPF level.
# Those nude mice were subcutaneously inoculated with human gastric cancer NCI-N87 cells, and then randomly divided into groups (D0) when tumors grew to 100-250 mm^3. Tumor volume was measured 2-3 times a week, the mice were weighed, and corresponding data were recorded. The tumor volume (V) was calculated as: V=½×a×b^2; in which a and b represent length and width respectively. T/C (%)=(T−T0)/(C−C0)×100, in which T and C represent the tumor volumes at the end of the experiment; T0 and C0 represent the tumor volumes at the beginning of the experiment.
# [6] = system: human gastric cancer NCI-N87 subcutaneous xenografts; test: In vivo anti-tumor efficacy assay (FIG. 24), IV on D 0; parameters: species or system BALB/cA-nude mice; details: 1.0 mg/kg
# Procedure: as §4
# Those nude mice were subcutaneously inoculated with 6×10^6 human gastric cancer NCI-N87 cells, and after the tumors grew to 100-250 mm^3, the mice were divided into groups (D0) according to tumor volumes. The mice were injected intravenously (IV), each with an administration volume 10 mL/kg; mice in vehicle control group was administered with the same volume of “vehicle” (physiological saline containing 0.1% BSA). Tumor volume was measured 2 times a week, the mice were weighed, and corresponding data were recorded.
# The purpose of this experiment was to investigate the effect of the drugs on tumor growth using specific indicators T/C % or tumor growth inhibition value (TGI) (%).
# Tumor diameters were measured twice a week with a vernier caliper. The tumor volume (V) was calculated as: V=½×a×b^2; in which a and b represent length and width respectively. T/C(%)=(T−T0)/(C−C0)×100, in which T and C represent the tumor volumes at the end of the experiment; T0 and C0 represent the tumor volumes at the beginning of the experiment. […]
substance,measurement,setting,value
Taltobulin,pIC50,[1],8.60
"Pertuzumab: HER2 antibody, naked antibody",IC50,"[2]; BT-474, 120 h",>10 µg/mL
same,IC50,"[3]; NCI-N87, 120 h",>10 µg/mL
P-mcVC-MMAE: comparison Pertuzumab conjugate; traditional mcVC-PAB conjugate with MMAE,inhibition of tumor cell proliferation,[4],significant inhibition of tumor cell proliferation
same,inhibition of tumor cell proliferation,"[2]; BT-474, Her2 highly expressing, 5 days, FIG. 5",significant inhibition of tumor cell proliferation
same,inhibition of tumor cell proliferation,"[3]; NCI-N87, Her2 highly expressing, 5 days, FIG. 6, FIG. 9-1",significant inhibition of tumor cell proliferation
same,mice with tumors partially regressed,[5],2/6
same,tumor inhibition rate,[5],94%
same,% T/C D 23,[6],17%
same,% TGI D 23,[6],83%
same,Mean tumor volume (mm3) D 23,[6],194.6 mm3
same,Partial regression,"[6]; number of mice, 6 per group",3
same,complete regression,"[6]; number of mice, 6 per group",0
